Active and inactive are the calls of the source.
How the values were obtained:
SUMO E1/E2 = SUMO E1/E2 (Homo sapiens, UniProt P63279+Q9UBE0+Q9UBT2); experiment: SAR analysis of SUMOylation using HTRF in an in-Vitro dose response assay. [Related pubchem assays (depositor defined):AID2006, AID2011, AID2018, AID2069, AID2658]; type: functional
[1] = inhibitors of SNCA 5'UTR-driven reporter translation, confirmation, H4 neuroglioma cells, luminescence (AID 1988); type: functional, cell-based
[2] = Luminescence Cell-Based Dose Response HTS to Identify Inhibitors of 5'UTR Stem-Loop Driven Prion Protein mRNA Translation in H4 Neuroglioblastoma Cells. [Related pubchem assays: 1827 (Project Summary), 1813 (Primary HTS)]; type: functional
[3] = inhibitors of firefly luciferase expression or activity, dose response, H4 neuroglioma cells, luminescence (AID 1990); type: functional, cell-based
SUMO-activating enzyme = SUMO-activating enzyme (Homo sapiens, UniProt Q9UBT2); experiment: SUMOylation inhibitor hit validation, confirmation, SUMOylation inhibitor project, biochemical, AlphaScreen (AID 2018); type: functional
Chain of SUMO-activating enzyme (Q9UBE0 whole entry): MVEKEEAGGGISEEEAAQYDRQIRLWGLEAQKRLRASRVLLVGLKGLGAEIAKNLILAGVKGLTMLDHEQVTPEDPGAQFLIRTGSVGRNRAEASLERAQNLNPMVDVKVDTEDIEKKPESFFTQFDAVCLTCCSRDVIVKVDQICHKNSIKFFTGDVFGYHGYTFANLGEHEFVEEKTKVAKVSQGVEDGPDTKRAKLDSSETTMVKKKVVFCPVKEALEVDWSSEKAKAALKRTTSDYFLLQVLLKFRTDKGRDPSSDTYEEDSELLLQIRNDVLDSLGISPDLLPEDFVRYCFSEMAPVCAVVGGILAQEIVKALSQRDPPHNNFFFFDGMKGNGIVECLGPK
Chain of SUMO-activating enzyme (Q9UBT2 whole entry): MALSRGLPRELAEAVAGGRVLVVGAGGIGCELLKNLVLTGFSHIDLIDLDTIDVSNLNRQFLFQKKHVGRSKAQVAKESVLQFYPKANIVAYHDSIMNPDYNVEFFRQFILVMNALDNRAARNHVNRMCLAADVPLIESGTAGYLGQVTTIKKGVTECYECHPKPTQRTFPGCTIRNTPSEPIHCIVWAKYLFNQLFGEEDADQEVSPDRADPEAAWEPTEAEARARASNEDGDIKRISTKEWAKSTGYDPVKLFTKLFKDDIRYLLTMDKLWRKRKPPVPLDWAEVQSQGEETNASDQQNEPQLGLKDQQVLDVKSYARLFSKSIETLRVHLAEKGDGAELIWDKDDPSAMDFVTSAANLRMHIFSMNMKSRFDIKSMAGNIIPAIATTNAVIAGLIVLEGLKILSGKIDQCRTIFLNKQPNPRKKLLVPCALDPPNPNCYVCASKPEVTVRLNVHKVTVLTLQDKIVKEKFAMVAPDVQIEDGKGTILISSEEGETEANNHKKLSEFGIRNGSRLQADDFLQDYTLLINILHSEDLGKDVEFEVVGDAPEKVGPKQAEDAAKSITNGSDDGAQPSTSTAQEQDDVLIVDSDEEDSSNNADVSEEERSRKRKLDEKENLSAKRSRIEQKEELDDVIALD

[4] = Counterscreen for AddAB inhibitors: absorbance-based bacterial cell-based high throughput dose response assay for inhibitors of bacterial viability. [Related pubchem assays (depositor defined):AID435030, AID449728, AID449731, AID488942, AID488955, AID488956]; type: functional
Exodeoxyribonuclease V = target: T1, Exodeoxyribonuclease V (Escherichia coli (strain K12), UniProt P04993+P07648+P08394); experiment: E. coli RecBCD inhibitors, dose response, counter-screen for AddAB inhibitor project, absorbance, V66 E. coli, mutant T4 phage (AID 492957); type: functional, cell-based, Escherichia coli str. K-12 substr. MG1655
T1 sequence (P04993 whole entry): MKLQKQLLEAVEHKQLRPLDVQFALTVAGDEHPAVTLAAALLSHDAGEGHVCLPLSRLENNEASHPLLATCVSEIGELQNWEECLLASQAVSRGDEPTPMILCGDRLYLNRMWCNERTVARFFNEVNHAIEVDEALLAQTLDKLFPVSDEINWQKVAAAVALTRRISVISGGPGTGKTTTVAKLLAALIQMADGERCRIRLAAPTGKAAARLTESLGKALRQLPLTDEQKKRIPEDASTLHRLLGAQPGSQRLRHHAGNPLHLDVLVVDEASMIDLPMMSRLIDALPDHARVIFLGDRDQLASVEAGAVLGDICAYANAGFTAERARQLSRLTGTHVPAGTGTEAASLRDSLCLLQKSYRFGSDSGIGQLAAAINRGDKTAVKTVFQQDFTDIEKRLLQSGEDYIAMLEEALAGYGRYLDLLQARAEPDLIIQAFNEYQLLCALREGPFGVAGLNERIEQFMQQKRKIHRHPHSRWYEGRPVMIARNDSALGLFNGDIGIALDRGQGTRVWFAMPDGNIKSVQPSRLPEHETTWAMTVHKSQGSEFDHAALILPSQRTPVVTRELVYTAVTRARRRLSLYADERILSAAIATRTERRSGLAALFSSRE
T1 sequence (P07648 whole entry): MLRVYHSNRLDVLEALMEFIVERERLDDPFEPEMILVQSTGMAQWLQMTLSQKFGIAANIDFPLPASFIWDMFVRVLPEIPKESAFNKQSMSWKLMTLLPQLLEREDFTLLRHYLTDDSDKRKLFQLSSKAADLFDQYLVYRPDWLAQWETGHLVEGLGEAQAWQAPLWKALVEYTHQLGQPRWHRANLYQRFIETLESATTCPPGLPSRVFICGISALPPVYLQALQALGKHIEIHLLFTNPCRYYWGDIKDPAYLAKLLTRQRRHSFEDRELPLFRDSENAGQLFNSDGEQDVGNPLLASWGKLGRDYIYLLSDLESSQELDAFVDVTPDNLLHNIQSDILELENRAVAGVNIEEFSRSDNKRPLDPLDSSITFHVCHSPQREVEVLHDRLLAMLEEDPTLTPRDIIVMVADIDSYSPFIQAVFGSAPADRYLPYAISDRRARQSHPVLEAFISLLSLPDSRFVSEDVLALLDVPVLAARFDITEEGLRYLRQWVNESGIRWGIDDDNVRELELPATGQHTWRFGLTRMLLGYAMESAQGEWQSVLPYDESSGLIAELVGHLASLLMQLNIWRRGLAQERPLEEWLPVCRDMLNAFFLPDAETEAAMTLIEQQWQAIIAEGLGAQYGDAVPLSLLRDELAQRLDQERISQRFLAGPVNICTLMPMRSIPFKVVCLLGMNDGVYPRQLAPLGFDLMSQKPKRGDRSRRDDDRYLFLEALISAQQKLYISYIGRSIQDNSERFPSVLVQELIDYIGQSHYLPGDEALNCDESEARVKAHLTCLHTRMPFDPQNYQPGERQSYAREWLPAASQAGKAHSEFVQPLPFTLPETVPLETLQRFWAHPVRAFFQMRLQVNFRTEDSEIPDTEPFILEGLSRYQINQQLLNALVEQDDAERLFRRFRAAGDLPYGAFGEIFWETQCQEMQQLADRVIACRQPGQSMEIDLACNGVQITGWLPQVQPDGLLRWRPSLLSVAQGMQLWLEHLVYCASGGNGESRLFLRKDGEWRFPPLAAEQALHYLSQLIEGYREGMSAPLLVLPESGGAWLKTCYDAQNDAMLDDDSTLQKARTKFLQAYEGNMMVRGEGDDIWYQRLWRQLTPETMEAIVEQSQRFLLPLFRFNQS
T1 sequence (P08394 whole entry): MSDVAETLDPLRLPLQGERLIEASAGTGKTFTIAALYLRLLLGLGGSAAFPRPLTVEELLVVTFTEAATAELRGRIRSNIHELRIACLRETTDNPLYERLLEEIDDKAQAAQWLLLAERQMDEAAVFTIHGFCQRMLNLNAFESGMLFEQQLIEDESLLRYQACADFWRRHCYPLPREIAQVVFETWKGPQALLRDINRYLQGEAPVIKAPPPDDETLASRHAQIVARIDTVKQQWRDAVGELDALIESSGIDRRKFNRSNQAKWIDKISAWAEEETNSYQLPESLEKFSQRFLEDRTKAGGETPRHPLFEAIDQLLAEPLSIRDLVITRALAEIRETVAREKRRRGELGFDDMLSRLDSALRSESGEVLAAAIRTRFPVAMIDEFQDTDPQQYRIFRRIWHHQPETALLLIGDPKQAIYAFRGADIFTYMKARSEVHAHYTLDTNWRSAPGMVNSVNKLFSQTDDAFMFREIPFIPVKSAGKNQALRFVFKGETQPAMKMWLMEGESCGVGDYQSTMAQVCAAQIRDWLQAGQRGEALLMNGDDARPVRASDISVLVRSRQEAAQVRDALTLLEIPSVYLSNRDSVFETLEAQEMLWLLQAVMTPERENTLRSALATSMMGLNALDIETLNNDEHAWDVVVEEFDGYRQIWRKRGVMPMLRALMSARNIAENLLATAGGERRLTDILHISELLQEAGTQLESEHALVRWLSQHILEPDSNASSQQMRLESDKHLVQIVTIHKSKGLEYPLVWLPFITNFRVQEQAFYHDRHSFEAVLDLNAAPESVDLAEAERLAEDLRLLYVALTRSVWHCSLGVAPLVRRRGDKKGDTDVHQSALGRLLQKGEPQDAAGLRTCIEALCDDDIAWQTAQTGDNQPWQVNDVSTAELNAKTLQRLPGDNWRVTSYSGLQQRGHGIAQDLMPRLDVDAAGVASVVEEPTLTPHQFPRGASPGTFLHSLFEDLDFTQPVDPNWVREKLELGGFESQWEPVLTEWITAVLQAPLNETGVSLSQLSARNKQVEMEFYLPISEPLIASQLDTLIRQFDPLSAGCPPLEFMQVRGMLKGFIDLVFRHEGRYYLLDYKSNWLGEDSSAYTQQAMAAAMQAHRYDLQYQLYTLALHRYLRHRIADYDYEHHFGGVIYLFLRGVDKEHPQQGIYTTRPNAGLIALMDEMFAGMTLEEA

CHO-K1 = experiment: (§1) Counterscreen for antagonists of the orexin 1 receptor (OX1R; HCRTR1): Homogeneous time resolved fluorescence (HTRF)-based cell-based dose response assay to identify antagonists of the parental CHO-K1 cell line. [Related pubchem assays (depositor defined):AID434989, AID435008, AID463079, AID485270, AID492963, AID492964, AID492965, AID493232, AID504699, AID504701]; type: functional; settings: Cricetulus griseus
[5] = as §1, with “Fluorescence-based” for “Homogeneous time resolved fluorescence (HTRF)-based”, “cell-based high throughput” for “cell-based”, “CHO” for “CHO-K1”; type: functional
[6] = target: T2, Orexin/Hypocretin receptor type 1 (Homo sapiens, UniProt O43613); experiment: Homogeneous Time Resolved Fluorescence (HTRF)-based cell-based high throughput dose response assay for antagonists of the orexin 1 receptor (OX1R; HCRTR1). [Related pubchem assays (depositor defined):AID434989, AID435008, AID463079, AID485270, AID492963, AID492964, AID492965, AID493232, AID504717, AID504718]; type: functional
T2 sequence (O43613 whole entry): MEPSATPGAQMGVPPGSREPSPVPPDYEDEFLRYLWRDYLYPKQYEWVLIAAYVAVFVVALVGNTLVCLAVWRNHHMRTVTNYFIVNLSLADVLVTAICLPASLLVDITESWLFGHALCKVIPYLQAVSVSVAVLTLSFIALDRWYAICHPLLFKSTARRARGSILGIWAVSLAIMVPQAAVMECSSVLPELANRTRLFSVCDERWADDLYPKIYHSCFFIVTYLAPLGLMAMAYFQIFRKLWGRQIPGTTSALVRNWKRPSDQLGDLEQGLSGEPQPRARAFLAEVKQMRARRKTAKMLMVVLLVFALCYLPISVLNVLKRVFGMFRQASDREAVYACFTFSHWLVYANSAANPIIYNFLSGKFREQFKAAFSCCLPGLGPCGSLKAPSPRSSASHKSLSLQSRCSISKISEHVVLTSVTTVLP

[7] = target: T2, Orexin/Hypocretin receptor type 1; experiment: Fluorescence-based cell-based high throughput dose response assay for antagonists of the orexin 1 receptor (OX1R; HCRTR1). [Related pubchem assays (depositor defined):AID434989, AID435008, AID463079, AID485270, AID492963, AID492964, AID492965, AID493232, AID504717, AID504718]; type: functional
cells = type: functional
[8] = target: G-protein coupled receptor 55 (Homo sapiens, UniProt Q9Y2T6); experiment: GPR55 antagonists blocking LPI-driven arrestin recruitment, primary screen, imaging, U2OS, beta-arrestin-GFP, LPI agonist (AID 2013); type: functional;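 note: antagonist potency measured as reduced agonist-driven arrestin aggregation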
Chain of G-protein coupled receptor 55 (Q9Y2T6 whole entry): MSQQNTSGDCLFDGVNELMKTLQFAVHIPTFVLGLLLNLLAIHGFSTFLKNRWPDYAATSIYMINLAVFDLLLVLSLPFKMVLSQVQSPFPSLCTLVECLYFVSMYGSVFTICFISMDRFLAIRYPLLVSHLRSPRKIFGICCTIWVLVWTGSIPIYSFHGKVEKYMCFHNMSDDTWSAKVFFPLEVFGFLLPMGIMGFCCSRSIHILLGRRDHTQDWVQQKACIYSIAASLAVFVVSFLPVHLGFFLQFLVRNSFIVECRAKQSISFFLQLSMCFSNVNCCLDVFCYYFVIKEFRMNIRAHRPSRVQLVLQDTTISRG

[9] = HepG2 cell cytotoxicity, dose response, cytotoxicity control for non-replicating M. tuberculosis project (AID 489018); type: functional; settings: Mycobacterium tuberculosis
[10] = target: T3, RNA-editing ligase 1, mitochondrial (Trypanosoma brucei brucei, UniProt P86926); experiment: TbREL1 ligase inhibitors, dose response, biochemical, fluorescence, Trypanosoma brucei (AID 1117295); type: functional
T3 sequence (P86926 whole entry): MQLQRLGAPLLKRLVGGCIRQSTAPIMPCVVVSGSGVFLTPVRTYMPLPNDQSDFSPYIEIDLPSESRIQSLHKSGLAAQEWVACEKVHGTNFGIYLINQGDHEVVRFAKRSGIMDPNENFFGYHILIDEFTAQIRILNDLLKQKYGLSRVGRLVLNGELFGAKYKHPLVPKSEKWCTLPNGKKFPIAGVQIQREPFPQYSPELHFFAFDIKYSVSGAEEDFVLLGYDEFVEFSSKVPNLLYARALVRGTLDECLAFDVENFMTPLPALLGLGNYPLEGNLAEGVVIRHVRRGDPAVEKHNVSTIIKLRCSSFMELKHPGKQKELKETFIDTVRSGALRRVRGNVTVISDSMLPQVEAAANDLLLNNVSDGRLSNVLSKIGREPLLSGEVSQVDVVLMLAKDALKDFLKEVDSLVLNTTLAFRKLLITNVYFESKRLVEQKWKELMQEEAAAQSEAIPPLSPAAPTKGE

[11] = THP-1 cell cytotoxicity, dose response, cytotoxicity control for non-replicating M. tuberculosis project (AID 489025); type: functional

Chain of SUMO E1/E2 (Q9UBE0 whole entry): as the sequence (Q9UBE0 whole entry) above
Chain of SUMO E1/E2 (Q9UBT2 whole entry): as the sequence (Q9UBT2 whole entry) above
Chain of SUMO E1/E2 (P63279 whole entry): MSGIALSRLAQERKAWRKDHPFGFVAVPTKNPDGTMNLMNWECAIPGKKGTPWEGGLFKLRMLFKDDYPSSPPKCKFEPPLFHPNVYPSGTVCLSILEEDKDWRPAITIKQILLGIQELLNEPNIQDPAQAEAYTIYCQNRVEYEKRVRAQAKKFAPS

Structure (SMILES): Cc1ccc(Nc2cc3ccccc3c(=O)[nH]2)cc1
- IC50 (SUMO E1/E2): 19.8 µM (active)

Structure (SMILES): Nc1c2cnnc-2nc(SCC(=O)c2ccc(Br)cc2)n1-c1ccc(Br)cc1
- EC50 [1]: > 120 µM (not active)
- EC50 [2]: > 120 µM (not active)
- EC50 [3]: > 120 µM (not active)
- IC50 (SUMO-activating enzyme): 59.1 µM (active)

Structure (SMILES): Cc1ccc(-c2nc3ccccc3o2)cc1NC(=O)c1ccc2c(c1)OCO2
- IC50 (SUMO-activating enzyme): 34.1 µM (active)

Structure (SMILES): CC(=O)N(O)CCCCCNC(=O)CCC(=O)N(O)CCCCCNC(=O)CCC(=O)N(O)CCCCCNC(=O)CCC(=O)O
- IC50 [4]: > 118 µM (inactive)
- IC50 (Exodeoxyribonuclease V): > 118 µM (inactive)

Structure (SMILES): Cc1ccc(C2Nc3ccc(C(=O)O)cc3C3C=CCC32)cc1 (stereo not drawn)
- IC50 (SUMO E1/E2): > 100 µM (inactive)

Structure (SMILES): COC(=O)C1=C(C)N(Cc2ccccc2)C(NCc2ccccc2)=N[C@H]1c1cccc(F)c1
- IC50 (CHO-K1): > 66.2 µM (inactive)
- IC50 [5]: 23.8 µM (inactive)
- IC50 [6]: > 66.2 µM (inactive)
- IC50 [7]: 17.9 µM (inactive)
- IC50 (cells): 19.8 µM (active)
- IC50 [8]: 1.25 µM (active)
- CC50 [9]: 14.9 µM (active)
- IC50 [10]: > 96.6 µM (inactive)
- CC50 [11]: 15 µM (active)

Source: ChEMBL document CHEMBL1201862, “PubChem BioAssay data set” (2004)
